Data: US10231463B2, “Food mass suitable for microwaving” (Chemische Fabrik Budenheim KG, priority 2013, dated 2019)

Experiments:
[1] = Thawing and baking trials with puff pastry in a microwave oven; conditions: for ΔT (temperature difference between crust temperature and crumb temperature): 2 parts by weight additive, puff pastry dough pieces; for Microwave activity: assessment scale from ΔT, puff pastry doughs
Method: A puff pastry from Veripan was used as the basic recipe.
2 parts by weight of microwave absorber were further added to the basic recipe.
Wheat flour, inverted sugar, emulsifier and optionally microwave absorber were put into a mixing container and mixed. The water and 20% of the vegetable fat were added and kneaded for 3 minutes at a low stage and for 5 minutes at a medium stage with a spiral kneader. The dough temperature was monitored. The target temperature was 18° C. After that the remaining vegetable fat was beaten into the dough. The dough was then folded at intervals each of 30 minutes in 4 working steps, more specifically 2 single and 2 double turns. They give by calculation 144 fat layers (margarine), divided into very thin dough and fat layers. Before processing the dough was stored in a cooled condition for 12 hours.
Unbaked puff pastry dough roundels without filling and pre-baked puff pastry dough pockets (hot pockets) with a tomato sauce filling were respectively subjected to microwave radiation as deep-frozen dough pieces in a microwave oven from Panasonic (see Example 2) for a predetermined period and with a predetermined microwave power. After a […] standing time the temperature of the dough piece was measured by means of a thermal imaging camera (Fluke Ti20) and evaluated.
Measurement value 1 (M1)=averaged crust temperature outside
Measurement value 2 (M2)=averaged crumb temperature in the interior of the dough piece.
Puff pastry dough roundel (PPD-RO): 440 watts; 200 seconds
Puff pastry dough hot pockets (PPD-HP): 600 watts; 300 seconds
Table 3 hereinafter reproduces the additives used, the temperature measurement values M1 and M2 and the corresponding temperature difference (ΔT) between crust temperature and crumb temperature of the dough piece.
Assessment of Microwave Activity in Puff Pastry Doughs 1: ΔT=>20° C.=very good 2: ΔT=15 to <20° C.=good 3: ΔT=<15° C.=no additional additive

[2] = Thawing and baking trials with yeast-raised wheat frozen doughs in a microwave oven; conditions: yeast-raised wheat frozen dough; for ΔT (temperature difference between crust temperature and crumb temperature): 2 parts by weight additive, 600 watts, 120 seconds; for Microwave activity: assessment scale from ΔT
Method: Dough Composition (Basic Recipe):
In addition 2 parts by weight of microwave absorber were added to the basic recipe.
• Mixing and kneading time: 3+2 minutes (the latter in a Stephan mixer) • Dough standing time: 20 minutes • Dough piece weight: 200 g • Cooking time of the dough pieces: 20 minutes • Freezing time: about 4 hours • Deep freeze storage time: about 2 days Thawing and Baking Trials:
The deep-frozen dough pieces were exposed to microwave radiation in a microwave oven from Panasonic (model: NN-GD560M—inverter microwave) for a predetermined period of 120 seconds and with a predetermined microwave power of 600 watts (according to the device indication). After 2 minutes of standing time the temperature of the crust and the crumb was measured by means of an infrared temperature sensor at various measurement points on the dough piece.
Measurement value 1 (M1)=average crust temperature outside
Measurement value 2 (M2)=average crumb temperature in the interior of the dough piece.

[3] = Baking trials with ready-to-eat baking mixture (lemon cake) in a microwave oven; conditions: for ΔT (temperature difference between crust temperature and crumb temperature): 2 parts by weight additive, 600 watts, 140 seconds; for Microwave activity: assessment scale from ΔT
Method: A ready-to-eat baking mixture for lemon cakes from […] was used as the basic recipe. […] Whole egg and sugar were put into a mixing container and mixed. The powder mixture of the composition (wheat flour, cooking salt and so forth) was slowly mixed in. Vegetable oil, flavouring substances and alcohol were then slowly added and mixing was effected for 12 minutes. After that baking raising agent was added and mixed at a medium stage for a further 2 minutes. After that the microwave absorber was mixed in, the mixer was switched off, and the material was tipped out and stored cool.

[4] = Pore volume by nitrogen gas adsorption (BJH method, BELSORP-mini II); format: physicochemical; conditions: total pore volume Vp, nitrogen adsorption at 77.3 K
Source text: Determining the Pore Volume
The pore volume in accordance with the present invention is characterised by means of gas adsorption. The recording of physisorption isotherms (adsorption and desorption isotherms) of inert gas molecules at low temperatures is routinely used for determining solids parameters.
The BJH method provides an algorithm for the calculation of pore width distribution from nitrogen adsorption data on the assumption of a cylindrical pore geometry. In that respect consideration is given to the change in the adsorbed volume in the pores in dependence on the pore radius, wherein the pore radius distribution function is related as a relative value to the total pore volume. […] It is assumed that the entire pore system is filled with a capillary condensate.

[5] = Solubility of the additive in water at 20° C.; format: physicochemical

Molecule | ΔT (temperature difference between crust temperature and crumb temperature) [1] | Microwave activity [1] | ΔT (temperature difference between crust temperature and crumb temperature) [2] | Microwave activity [2] | ΔT (temperature difference between crust temperature and crumb temperature) [3] | Microwave activity [3] | Pore Volume [4] | Solubility [5]
O=P([O-])(O)OP(=O)([O-])O.[Ca+2] [CAPP, Acid calcium pyrophosphate] | 26.1 °C | 1 (ΔT=>20° C.=very good) | 50.0 °C | 1 (ΔT=>40° C.=very good) | 21.2 °C | 1 (ΔT=>20° C.=very good) | 3.6 10^−3 cm^3/g | –
O=P([O-])([O-])[O-].[Fe+3] [FeOP, Iron-III-orthophosphate] | 15.1 °C | 2 (ΔT=15 to <20° C.=good) | 47.0 °C | 1 (ΔT=>40° C.=very good) | 15.9 °C | 2 (ΔT=15 to <20° C.=good) | 19 10^−3 cm^3/g | –
O=P([O-])([O-])OP(=O)([O-])[O-].O=P([O-])([O-])OP(=O)([O-])[O-].O=P([O-])([O-])OP(=O)([O-])[O-].[Fe+3].[Fe+3].[Fe+3].[Fe+3] [FePP, Iron-III-pyrophosphate] | 16.9 °C | 2 (ΔT=15 to <20° C.=good) | 42.6 °C | 1 (ΔT=>40° C.=very good) | 26.4 °C | 1 (ΔT=>20° C.=very good) | 30 10^−3 cm^3/g | –
O=P([O-])([O-])OP(=O)([O-])OP(=O)([O-])[O-].[K+].[K+].[K+].[K+].[K+] [KTPP(V), Potassium tripolyphosphate, reference compound] | – | – | 12.3 °C | 3 (ΔT=<25° C.=no additional activity) | – | – | 1.1 10^−3 cm^3/g | >200 g/L
O=P([O-])([O-])OP(=O)([O-])[O-].[Mg+2].[Mg+2] [MgPP, Magnesium pyrophosphate] | 15.2 °C | 2 (ΔT=15 to <20° C.=good) | 45.8 °C | 1 (ΔT=>40° C.=very good) | 19.1 °C | 2 (ΔT=15 to <20° C.=good) | 7.1 10^−3 cm^3/g | –
O=P(O)(O)OP(=O)(O)OP(=O)(O)O [STPP(V), Sodium tripolyphosphate, reference compound] | – | – | 12.6 °C | 3 (ΔT=<25° C.=no additional activity) | – | – | 1.1 10^−3 cm^3/g | 145 g/L
O=P([O-])([O-])OP(=O)([O-])[O-].[Zn+2].[Zn+2] [ZPP, Zinc pyrophosphate] | – | – | 37.9 °C | 2 (ΔT=25 to 40° C.=good) | – | – | 10.5 10^−3 cm^3/g | –
Ammonium molybdate [AmMD(V), reference compound] | – | – | 24.2 °C | 3 (ΔT=<25° C.=no additional activity) | – | – | 2.6 10^−3 cm^3/g | –
Calcium gluconate [CaGl] | – | – | 36.6 °C | 2 (ΔT=25 to 40° C.=good) | – | – | 10.0 10^−3 cm^3/g | –
Magnesium metaphosphate [MMP] | – | – | 38.4 °C | 2 (ΔT=25 to 40° C.=good) | – | – | 5.1 10^−3 cm^3/g | <0.1 g/L
Sodium aluminium phosphate 1:3:8 NaH14Al3(PO4)8 [SALP 1] | – | – | 29.6 °C | 2 (ΔT=25 to 40° C.=good) | – | – | 13 10^−3 cm^3/g | 15 g/L
Sodium aluminium phosphate 3:2:8 Na3H15Al2*PO4)8 [SALP 2] | – | – | 20.5 °C | 2 (ΔT=25 to 40° C.=good) | – | – | 6.4 10^−3 cm^3/g | 15 g/L
